Paper PMC6320368, “A T-cell receptor escape channel allows broad T-cell response to CD1b and membrane phospholipids” (Nature Communications, 2019)

How the values were obtained:
[1] = biological target: T1, CD1b (human CD1b monomer with β2m; CD1b tetramer) (Homo sapiens, UniProt P29016); assay: lipid-loaded CD1b tetramer staining of T-cell lines; format: cell-based; conditions: indirect read-out of lipid loading; CHAPS, citrate pH 7.4, 37 °C loading
T1 construct: soluble ectodomain with beta-2-microglobulin; His-tag purified; from High Five insect cells or HEK293S GnTI- (crystals, SPR); tetramer-facility monomers from U293 cells; with Beta-2-microglobulin

[2] = biological target: T1, CD1b (human CD1b monomer with β2m; CD1b tetramer); assay: SPR of BC8B TCR on lipid-loaded CD1b; tetramer staining; format: binding; conditions: indirect read-out of lipid loading; pH 8.0, 25 °C

T1 sequence (P29016 20-296): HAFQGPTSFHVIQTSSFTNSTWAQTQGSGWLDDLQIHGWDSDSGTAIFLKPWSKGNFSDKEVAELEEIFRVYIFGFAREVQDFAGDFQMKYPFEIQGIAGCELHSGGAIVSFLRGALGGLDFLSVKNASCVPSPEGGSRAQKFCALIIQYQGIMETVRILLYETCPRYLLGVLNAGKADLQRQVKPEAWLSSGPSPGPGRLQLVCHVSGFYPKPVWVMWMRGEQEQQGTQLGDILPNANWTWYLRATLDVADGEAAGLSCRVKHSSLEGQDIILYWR
T1 sequence (P61769 21-119 partner): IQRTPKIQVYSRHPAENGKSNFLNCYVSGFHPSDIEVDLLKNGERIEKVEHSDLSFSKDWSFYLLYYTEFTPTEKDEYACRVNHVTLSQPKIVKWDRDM

SMILES	lipid-loaded CD1b tetramer staining of T-cell lines [1]	SPR of BC8B TCR on lipid-loaded CD1b; tetramer staining [2]
CCCCCCCC/C=C\CCCCCCCC(=O)OC[C@@H](O)COP(=O)(O)O [LPA, lysophosphatidic acid]	specifically stained with phospholipids carrying small head groups, such as PG and LPA	–
CCCCCCCCCCCCC/C=C/[C@@H](O)[C@H](COP(=O)([O-])OCC[N+](C)(C)C)NC(=O)CCCCCCCCCCCCCCC [SM, sphingomyelin]	–	The BC8B TCR detectably interacted with CD1b presenting the sphingolipid antigens, SM and sulfatide
